# Article PMC3534098 (PLoS ONE, 2012)
# System: M. bovis BCG resistant mutants
# Format: cell-based, Mycobacterium bovis BCG
row,SMILES,viability of M. bovis BCG mutants raised against other IP family members
1,Cc1ccc2nc(C)c(C(=O)NCc3cccs3)n2c1 [IP 1],viable
2,"Cc1ccc2nc(C)c(C(=O)NCc3ccc(C(F)(F)F)cc3)n2c1 [IP 3, 2,6-Dimethyl-N-(4-(trifluoromethyl)benzyl)imidazo[1,2-a]pyridine-3-carboxamide]",viable
3,"Cc1ccc2nc(C)c(C(=O)NCc3ccc(Cl)nc3)n2c1 [IP 4, N-((6-Chloropyridin-3-yl)methyl)-2,6-dimethylimidazo[1,2-a]pyridine-3-carboxamide]",viable
